From patent publication US6703536B2, “Disposable absorbent article having a skin care composition containing an enzyme inhibitor” (The Procter & Gamble Company, priority 1998, dated 2004)
Structures can show the parent of a compound that is named as a salt. Where two headings read alike, the source gives them in different places. Square brackets hold non-standard residues; d marks the D form. Peptide text beside a SMILES is read from it. * marks the point of attachment. Sta = CC(C)C[C@H](N)[C@@H](O)CC(=O)O; Isovaleryl = CC(C)CC(=O)*

T1: purified leucine aminopeptidase (LAP) (Sus scrofa, UniProt P15145)
T1 construct: purchased Sigma, St. Louis, Mo; L5006
T1 sequence (P15145 1-963): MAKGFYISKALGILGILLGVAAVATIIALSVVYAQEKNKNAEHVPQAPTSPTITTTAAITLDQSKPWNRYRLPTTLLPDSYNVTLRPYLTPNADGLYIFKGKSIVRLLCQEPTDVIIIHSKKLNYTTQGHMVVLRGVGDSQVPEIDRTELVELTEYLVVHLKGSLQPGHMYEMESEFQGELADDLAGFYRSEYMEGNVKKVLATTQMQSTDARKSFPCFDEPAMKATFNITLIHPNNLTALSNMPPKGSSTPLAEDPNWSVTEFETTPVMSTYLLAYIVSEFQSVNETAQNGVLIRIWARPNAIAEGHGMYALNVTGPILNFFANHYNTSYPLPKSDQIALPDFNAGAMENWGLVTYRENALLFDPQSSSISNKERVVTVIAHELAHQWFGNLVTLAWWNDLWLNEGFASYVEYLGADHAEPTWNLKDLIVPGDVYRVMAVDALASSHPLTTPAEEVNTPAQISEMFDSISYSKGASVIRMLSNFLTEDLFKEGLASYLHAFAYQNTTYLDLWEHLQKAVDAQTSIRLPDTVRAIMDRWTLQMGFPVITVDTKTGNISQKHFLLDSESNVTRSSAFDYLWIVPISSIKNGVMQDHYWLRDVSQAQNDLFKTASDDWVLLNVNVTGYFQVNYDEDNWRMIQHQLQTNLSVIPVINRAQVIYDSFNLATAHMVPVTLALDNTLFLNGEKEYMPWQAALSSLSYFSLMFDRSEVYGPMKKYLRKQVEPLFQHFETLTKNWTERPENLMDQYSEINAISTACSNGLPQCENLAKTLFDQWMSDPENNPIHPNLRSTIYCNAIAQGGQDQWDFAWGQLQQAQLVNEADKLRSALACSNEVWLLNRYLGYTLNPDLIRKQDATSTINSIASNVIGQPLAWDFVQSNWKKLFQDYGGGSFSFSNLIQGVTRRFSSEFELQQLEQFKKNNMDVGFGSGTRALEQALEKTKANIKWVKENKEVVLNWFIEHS


Columns and labels:
LAP activity in feces = test: Fecal LAP Activity (Specific Fecal Enzyme Method); assay type: biochemical; conditions: pooled infant fecal suspension, pH 7.2, 25° C.; read-out: IC50 Specific Fecal Enzyme Methods LAP
Source text: The following is a general description of a method for obtaining a sample of feces suitable for use in Fecal Protease Methods. However, one skilled in the art will be able to adapt the method to obtain appropriate samples of feces suitable for use in any of the Specific Fecal Protease Methods listed below (i.e., lipase, urease, and amylase) without undue experimentation.
Pooled infant feces (at least five different samples) are collected in a manner to keep them free of urine and contamination and mixed with water to obtain a weight by weight (w/w) mixture (e.g., 1:50 w/w). This mixture is then mixed thoroughly to obtain a homogeneous suspension by homogenization or sonication. […] (Also, to ensure complete linearity the final absorbance should never exceed 1.5 OD405 units). If the activity of the pooled infant feces is outside this range, it is not possible to accurately determine IC50 values for putative protease inhibitors. However, the range of enzyme activity may be adjusted by increasing or decreasing the dilution factor accordingly for each enzyme. If this is not possible, a different group of subjects should be used to obtain the sample pool.
To test the efficacy of protease inhibitors against LAP activity in feces, inhibitor and LAP buffer (50 mM sodium phosphate, pH 7.2) are added in a cuvette to obtain a final volume of 0.95 mL. To this mixture, 0.03 mL of substrate (6 mM L-Leucine-p-nitroanilide) is added to the cuvette. The cuvette is mixed by inversion and incubated at 25° C. for 5 minutes. A volume of 0.02 mL of fecal suspension is added to the cuvette, mixed and the absorbance at 405 nm minus the absorbance at 490 nm measured over 5 minutes at 25° C. The rate of substrate cleavage in the presence of inhibitor (vi) is the slope of a plot relating the excess absorbance (i.e., the absorbance at 405 nm minus the absorbance at 490 nm) versus time. The same procedure is repeated without the putative inhibitor. The rate of substrate cleavage in the absence of inhibitor (v) is the slope of a plot relating the excess absorbance versus time. The rates, vi and v, and the inhibitor concentration [I] are used to calculate IC50 according to the equation expressed above.

[1] = target: T1, purified leucine aminopeptidase (LAP); test: Purified Leucine Aminopeptidase Activity (Purified Enzyme Method); assay type: biochemical
Description: The IC50 is calculated according to the equation IC50=[I]/[(v/vi)−1], where [I] is the inhibitor concentration tested, v is the rate of substrate cleavage in the absence of the inhibitor and vi is the rate of substrate cleavage in the presence of the inhibitor. As described further below, the IC50 of an enzyme inhibitor according to the invention may be measured by a Purified Enzyme method, by a Specific Fecal Enzyme method or by a General Fecal Enzymes method.
Standard in vitro assays for enzyme activity, and inhibition of enzyme activity, are well known. The reagents used to conduct these tests are generally commercially available. In general, a simple system comprises an enzyme-specific substrate which, when hydrolyzed by the enzyme, produces a colored product. The activity of the enzyme is measured spectrophotometrically as the degree of development of the colored product (i.e., the rate of color change) over a predetermined time period. […] The following are exemplary methods that may be utilized to determine the inhibitory activity of enzyme inhibitors against A) purified enzymes known to exist in feces, B) specific enzyme activity in the feces itself and C) general enzyme activity in the feces itself. These methods are not intended to be limiting, however, as other methods, other substrates, other inhibitors and the like may be used to test activity against a wide variety of fecal enzymes, as known to one skilled in the art.
For each of the following exemplary Purified Enzyme Methods, Specific Fecal Enzyme Methods, General Fecal Enzymes Method, Purified Lipase activity assay, Fecal Lipase activity assay, Purified Urease activity assay, Fecal Urease activity assay, Purified Amylase activity assay, and Fecal Amylase activity assay, the IC50 for each inhibitor tested may be calculated according to the following equation: […]
where [I] is the inhibitor concentration tested, v is the rate of substrate cleavage in the absence of inhibitor and vi is the rate of substrate cleavage in the presence of inhibitor.
In the methods, v and vi are measured as the change in absorbance (optical density, OD) at a given wavelength/time (e.g., minutes).
To test the efficacy of protease inhibitors against purified leucine aminopeptidase (LAP), 0.05 mL of a putative inhibitor and 0.125 mL of 0.06 U/mL LAP (e.g., Sigma, St. Louis, Mo., catalogue no. L5006) in LAP buffer (50 mM sodium phosphate, pH 7.2) are added to a microcuvette. The cuvette is incubated at 25° C. for 10 minutes. […] The same procedure is repeated without the putative inhibitor. […] The rates, vi and v, and the inhibitor concentration [I] are used to calculate IC50 according to the equation expressed above.

[2] = purified leucine aminopeptidase, L-Leucine-p-nitroaniline, pH 7.2, 25° C., read-out: IC50 Purified Enzyme Methods LAP

Molecule	IC50 (LAP activity in feces) [µM]	IC50 [1, 2] [µM]	IC50 [1] [µM]
CC1(C)[C@@H](O[C@H]2O[C@H](C(=O)O)[C@@H](O)[C@H](O)[C@H]2O[C@@H]2O[C@H](C(=O)O)[C@@H](O)[C@H](O)[C@H]2O)CC[C@]2(C)[C@H]3C(=O)C=C4[C@@H]5C[C@@](C)(C(=O)O)CC[C@]5(C)CC[C@@]4(C)[C@]3(C)CC[C@@H]12 [Glycyrrhizic Acid]	> 300	> 500	–
N=C(N)c1ccc(N)cc1 [p-Amino-benzamidine]	> 500	> 500	–
Cc1ccc(S(=O)(=O)N[C@@H](CCCCN)C(=O)CCl)cc1 [TLCK, L-1-chloro-3-[4-tosylamido]-7-amino-2-heptanone-HCl]	> 500	–	> 500
CC(C)CC(=O)N[C@H](C(=O)N[C@H](C(=O)N[C@@H](CC(C)C)[C@@H](O)CC(=O)N[C@@H](C)C(=O)N[C@@H](CC(C)C)[C@@H](O)CC(=O)O)C(C)C)C(C)C [Pepstatin A] (Isovaleryl-VV[Sta]A[Sta]-OH)	> 500	> 500	–
CC(=O)N[C@@H](CC(C)C)C(=O)N[C@@H](CC(C)C)C(=O)N[C@H](C=O)CCCNC(=N)N [Leupeptin]	> 500	> 500	–
Aprotinin	> 20	> 20	–
N=C(N)c1ccc(OCCCCCCOc2ccc(C(=N)N)cc2)cc1 [Hexamidine diisethionate]	130	256	–
CC(C)C[C@H](NC(=O)[C@@H](NC(=O)N[C@@H](Cc1ccccc1)C(=O)O)[C@@H]1CCN=C(N)N1)C(=O)N[C@H](C=O)Cc1ccccc1 [Chymostatin]	> 500	> 500	–
Soybean trypsin inhibitor: plant-derived trypsin inhibitor (protein, UniProt P01070 25-205, looked up) Trypsin inhibitor A: DFVLDNEGNPLENGGTYYILSDITAFGGIRAAPTGNERCPLTVVQSRNELDKGIGTIISSPYRIRFIAEGHPLSLKFDSFAVIMLCVGIPTEWSVVEDLPEGPAVKIGENKDAMDGWFRLERVSDDEFNNYKLVFCPQQAEDDKCGDIGISIDHDDGTRRLVVSKNKPLVVQFQKLDKESL	> 20	> 10	–
